Structures are written as SMILES. pIC50: −log10 of the molar value.

The test system of one assay is K-562 cells. The following applies: human leukemia cell line K-562, dissolved in DMSO; cited from earlier work.
For the next assay, the system named is procaspase 9. As to the kind of experiment: Western blot, procaspase 9. The assay is classed as cell-based, human. The following applies: MDA-MB-231 and HL60/DOX. The procedure: Next, the samples were lysed on ice with a buffer containing 100 mM Tris–HCl at pH 8.0, 4% SDS, 20% glycerol, 1% Na3VO4, 200 mM dithiothreitol (DTT) (Sigma-Aldrich, St. Louis, MO, USA) and protease inhibitor (Roche, Basel, Switzerland). Then the cell lysate was boiled for 15 min and centrifuged at 13,000 rpm for 10 min at 4 °C. Before DTT addition, aliquot samples of 10 μL were taken from the lysates. Their protein concentrations were determined using a BCA protein assay kit (ThermoFisher Scientific, Waltham, MA, USA) after dilution 5× with H2O. Subsequently, the samples were subjected to denaturing SDS-PAGE electrophoresis and then transferred to PVDF membrane (Santa Cruz Biotechnology, USA). After this, the blots were fixed with blocking solution (5% w/v nonfat dried milk powder, dissolved in TBS) and incubated with specific primary antibodies: mouse procaspase-9 (sc-17784), mouse Bcl-2 (C-2, sc-7382) and mouse β-actin (sc-8432). The incubation was either overnight at 4 °C or for 150 min at room temperature. After washing, the membranes were incubated for 45 min with horseradish peroxidase conjugated secondary goat anti-mouse antibody (sc-2005) or mouse IgG kappa antibody (sc-516102) (Santa Cruz Biotechnology, Santa Cruz, CA, USA). […] This densitometry analysis of the blots was calculated by Quantity One software version 4.6.9 (Bio-Rad Laboratories, Hercules, CA, USA). […]
(Immunoblotting shows a protein as a band on a membrane.)

Regarding `CC(C)=CCC[C@]1(C)[C@@H](CC=C(C)C)C[C@]2(C)C(=O)C(CC=C(C)C)=C(O)[C@@]1(C(=O)C(C)C)C2=O` [Compound 3, hyperpolyphyllirin/hyperibine J], the negative-log IC50 (pIC50) in the assay with K-562 cells was 4.67.
On to `CC(C)=CCC[C@]1(C)[C@@H](CC=C(C)C)C[C@H]2C(=O)[C@]1(C(=O)C(C)C)C(=O)C(CC=C(C)C)=C2O` [Compound 5, (1S,5R,7S,8R)-4-hydroxy-1-isobutyryl-8-methyl-3,7-bis(3-methylbut-2-en-1-yl)-8-(4-methylpent-3-en-1-yl)bicyclo[3.3.1]non-3-ene-2,9-dione], for which the “degradation of the precursor caspase 9 (in words)” value with procaspase 9 was “not any observed decrease”.

The pIC50 is the IC50 on a negative log10 scale, so that one unit is a factor of ten.

Source of the values: publication PMC10097024, “Cytotoxic and Antibacterial Prenylated Acylphloroglucinols from Hypericum olympicum L” (Plants, 2023).
